Measurements from the supplement of paper PMC10307832.

Legend:
Experiment in all cases: relative viability (nuclei count vs DMSO), 5 days (fraction); higher = more cells survive
[1] = compound: C1CNCCC1C2=CC(=NN2)C3=CC=NC=C3 + CC(C)C[C@H](NC(=O)[C@H](Cc1ccccc1)NC(=O)c1cnccn1)B(O)O [Bortezomib] (partner 0.002 µM)
In short: (§1)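 Dosing by pin tool came one day after lung cancer cell lines were seeded in 1536-well plates, using either one drug or a fixed anchor-drug dose plus five library-drug doses (not always all listed) in √10 steps. After 5 days, nuclei were counted on 4× images. Relative viability is treated-well nuclei count divided by vehicle-well nuclei count, and values are medians of duplicate plates.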

[2] = compound: C[C@@H](N)c1ccc(C(=O)Nc2ccnc3[nH]ccc23)cc1 + Cc1cc(Nc2cc(N3CCN(C)CC3)nc(Sc3ccc(NC(=O)C4CC4)cc3)n2)n[nH]1 [Tozasertib] (partner 0.1 µM)
In short: as §1

Tanzisertib + Vorinostat = compound: O[C@H]1CC[C@H](Nc2ncc3nc(Nc4c(F)cc(F)cc4F)n([C@H]4CCOC4)c3n2)CC1 [Tanzisertib] + O=C(CCCCCCC(=O)Nc1ccccc1)NO [Vorinostat] (partner 1 µM)
In short: as §1

[3] = compound: C1CNCCC1C2=CC(=NN2)C3=CC=NC=C3 + COc1cc2c(Oc3ccc(NC(=O)C4(C(=O)Nc5ccc(F)cc5)CC4)cc3F)ccnc2cc1OCCCN1CCOCC1 [Foretinib] (partner 0.25 µM)
In short: as §1

Cell Line	relative viability ([1]; first compound 0.08 µM)	relative viability ([1]; first compound 0.8 µM)	relative viability ([1]; first compound 2.53 µM)	relative viability ([1]; first compound 8 µM)	relative viability ([2]; first compound 0.04 µM)	relative viability ([2]; first compound 0.1265 µM)	relative viability ([2]; first compound 0.4 µM)	relative viability ([2]; first compound 1.265 µM)	relative viability ([2]; first compound 4 µM)	relative viability (Tanzisertib + Vorinostat; first compound 0.08 µM)	relative viability (Tanzisertib + Vorinostat; first compound 0.253 µM)	relative viability (Tanzisertib + Vorinostat; first compound 0.8 µM)	relative viability (Tanzisertib + Vorinostat; first compound 2.53 µM)	relative viability (Tanzisertib + Vorinostat; first compound 8 µM)	relative viability ([3]; first compound 0.08 µM)	relative viability ([3]; first compound 2.53 µM)	relative viability ([3]; first compound 8 µM)	relative viability ([3]; first compound 0.8 µM)
NCI-H1755	0.991	0.943	1.04	0.932	0.568	0.602	0.725	0.581	0.559	0.756	0.791	0.828	0.624	0.79	0.968	0.908	0.897	
NCI-H1915	1	0.977	0.932	0.934	0.455	0.472	0.45		0.331	0.569	0.535	0.46	0.503	0.487	1.07	1.06	1.09	1.13
NCI-H1975	0.396	0.423	0.479	0.369	0.8	0.712	0.729	0.696	0.642	0.743	0.761	0.71	0.704	0.656	1.07	0.962	0.932	1.03
NCI-H1993	1.02	0.999	1.21	1.34	0.579	0.591	0.56	0.639	0.6	0.901	0.928	1.1	0.769	0.77	0.857	0.887	0.808	0.744
NCI-H2009	1.04	0.989	1.09	0.99	0.736	0.704	0.643	0.623	0.544	0.728	0.743	0.773	0.753	0.729	1.2	1.17	1.19	1.19
NCI-H2023	0.793	0.958	1.24	0.983	0.426	0.377	0.395	0.462	0.279	0.826	0.502	0.803	0.555	0.625	0.789	1.16	1.11	0.803
NCI-H2085	0.975	0.736	1.11	1.03	0.865	0.772	0.694		0.722		0.801	0.917	0.828	0.879	1.02	0.916	0.901	0.698
NCI-H2087	0.866	1.01	0.728	0.763	0.324	0.235	0.274		0.181	0.862	0.701	0.772	0.797	1.14	0.982	1.05	1.1	1.19
NCI-H2126	1.1	1.12	1.16	1.12	0.92	0.885	0.877	0.921	0.854	0.86	0.758	0.85	0.727	0.454	1.18	1.23	1.29	1.31
NCI-H2228	0.929	1.22	1.07	0.863	0.252	0.315	0.267	0.299	0.228	1.03	0.626	0.777	0.728	0.518	0.871	0.939	0.911	0.929
NCI-H2347	0.937	0.951	1.05	0.969	0.466	0.64	0.592		0.706	0.744	0.628	0.696	0.588	0.463	1.21	0.805	1.25	0.742
NCI-H2405	0.94	0.658	1.02	1	0.858	0.832	0.759	0.507	0.35	1.04	1.19	1.14	1.17	0.404	1.05	1.11	1.05	1.04
NCI-H3122	0.989	1.04	1.04	0.965	0.397	0.357	0.497		0.468	1.37	1.09	0.932	1.09	1.12	1.01	0.942	1.01	0.935
PC-3 [JPC-3]	0.845	0.814	0.811	0.793	0.892	0.839	0.955	0.967	0.816	0.835	1.18	1.04	0.748	0.445	1.01	1.1	1.04	1.07
PC-14	0.897	0.951	0.945	0.789	0.518	0.577	0.543	0.385	0.429	0.75	0.735	0.701	0.627	0.357	0.942	1.01	0.942	1.03
RERF-LC-KJ	1.09	1.22	1.16	1.12	0.643	0.453	0.525	0.513	0.422	0.779	0.712	0.743	0.573	0.56	0.871	0.837	0.924	0.942
SK-LU-1	1		1.38	1.27	0.34	0.333	0.372	0.289	0.311	0.848	0.824	0.734	0.9	0.828	0.813	0.951	0.885	0.946
SW 1573	0.75	1.22	1.11	1.12	0.121	0.208	0.174	0.174	0.156	1.21	0.666	0.72	1.04	0.566	0.679	0.901	1.03	0.967
